Experimental data reported in a melting point compilation (Tetko et al.).

Row | melting point [°C] | SMILES
1 | 211 to 214 | O=C(c1c[nH]c2ccccc12)C(F)(F)F
2 | 146 to 149 | COc1cc(O)cc(OC)c1OC
3 | 36 to 38 | O=CC(F)(F)C(F)(F)C(F)(F)C(F)(F)C(F)(F)C(F)(F)C(F)(F)C(F)(F)Cl
4 | 80 | CCCCCC(C=O)=Cc1ccccc1
5 | 250 | NC(=O)NC12CC3CC(CC(C3)C1)C2
6 | 185 to 188 | Cc1cc(C)c(NC(=O)C(Br)C(C)(C)C)c(C)c1 (stereo not given)
7 | 161 to 162 | CC(=O)Nc1cc(C)no1
8 | 114 | O=P(N1CC1)(N1CC1)N(N=Cc1ccccc1)c1ccccc1
9 | 86 to 87 | O=C(Cl)c1ccc2sccc2c1
10 | 51 to 53 | O=Cc1ccc(-c2ccccn2)cc1
11 | 115 | COC(=O)c1c(-c2c(Cl)cccc2Cl)noc1C
12 | -20 | Cc1cccc(S)c1
13 | 80 to 81 | CCOC(=O)c1cc2ccccc2cc1O
14 | 208 | CCOC(=O)C1=C(C)NC(=O)NC1c1ccc([N+](=O)[O-])cc1 (stereo not given)
15 | 66 to 68 | Cc1noc(-c2ccccc2)c1I
16 | 182 to 184 | NC(=O)Nc1cccc(O)c1
17 | 57 to 59 | CC(C)(C)OC(=O)N1CCN(Cc2ccc(C=O)cc2)CC1
18 | 161 | Clc1ccc(-c2nnn[nH]2)cc1Cl
19 | 77 to 78 | COC(=O)c1ccc([N+](=O)[O-])cc1Cl
20 | 173 to 177 | COC(=O)C1=C(C)NC(C)=C(C(=O)OC)C1c1ccc(OC)cc1
21 | 137 | COc1ccc(N2C(=O)C3ON=C(C(=O)c4ccco4)C3C2=O)cc1 (stereo not given)
22 | 96 to 98 | Brc1ccc(OC2CCOCC2)nc1
23 | 300 to 302 | O=c1[nH]c2scc(-c3ccccc3)c2c(=O)n1-c1ccc(F)cc1
24 | 28 | C#Cc1ccc(F)cc1

Row | melting point [°C] | SMILES
25 | 148 to 149 | Cc1nc(C(=O)O)cs1
26 | 59 | CC1CCC(C)(CNc2ccccc2)C1(C)C (stereo not given)
27 | 149 | CC12CCC(C(O)C(C(c3ccccc3)C3C(=O)C4(C)CCC(C3O)C4(C)C)C1=O)C2(C)C (stereo not given)
28 | 163 | O=C(C=Cc1ccc([N+](=O)[O-])cc1)c1ccc(Cl)cc1
29 | 96 | COC1=C(OC)C(C(O)CBr)OC1=O (stereo not given)
30 | 194 to 197 | N=C(N)NS(=O)(=O)c1cc(C(F)(F)F)cc(C(F)(F)F)c1
31 | 158 | CC1(C)OC(=O)C2(Cc3ccccc3C2)C(=O)O1
32 | 206 | N[C@@H](CSCC(=O)O)C(=O)O
33 | 121 to 122 | O=Cc1ccc(N2CCCC2=O)cc1
34 | 49 | c1ccc(O[Si](Oc2ccccc2)(Oc2ccccc2)Oc2ccccc2)cc1
35 | 175 | Cc1c[nH]c(-c2ccccc2)n1
36 | 77 to 79 | COC(=O)c1cscc1Sc1ccc(Cl)cc1
37 | 21 | CC(=O)Oc1ccc(Br)cc1
38 | 148 | NC(=O)CC(O)C(=O)O (stereo not given)
39 | 276 | CC(=O)Nc1cc(NC(C)=O)c(C=Cc2ccccc2)c([N+](=O)[O-])c1C=Cc1ccccc1
40 | 148 | NC(=O)Oc1ccc(Cc2ccccc2)cc1
41 | 181 to 184 | Clc1ccc(C2NN=C3c4ccccc4CCC32)cc1 (stereo not given)
42 | 40 to 45 | c1ccc2c(c1)OCCOCCOCCOCCOCCO2
43 | -89 | CC1CCC(C)S1 (stereo not given)
44 | 91 | O=Cc1cc(Cl)cc(Cl)c1[N+](=O)[O-]
45 | 206 | CC(=O)Nc1cc(NC(C)=O)c(OCCO)cc1OCCO
46 | 232 to 233 | Cc1nc(C(=O)O)c(C)o1
47 | 2 | CCC#CCCCCCCCCCCCCCC
48 | 166 to 168 | O=[N+]([O-])c1ccc(N=C=Nc2ccc([N+](=O)[O-])cc2)cc1

Row | melting point [°C] | SMILES
49 | 166 to 167 | COC(=O)c1ccc(N2CCN(C(=O)OC(C)(C)C)CC2)cc1
50 | 83 | c1ccc(-c2nnc3n2NC(c2ccccc2)S3)cc1 (stereo not given)
51 | 254 | Nc1cc(Cl)c(S(N)(=O)=O)cc1S(N)(=O)=O
52 | 180 | CC(=O)c1cc(C(C)=O)c(O)cc1O
53 | 238 | CC(=O)C1=C(C)NC(=O)NC1c1ccccc1 (stereo not given)
54 | 75 to 75.5 | COc1ccc2c(c1)CCC(=Cc1ccccc1)C2=O
55 | 18 to 20 | Cc1ccc([N+](=O)[O-])c(I)c1
56 | 192 to 193 | O=c1[nH]c2ccc(Cl)cc2o1
57 | 79 | COc1ccc(S(=O)(=O)Cl)cc1F
58 | 29 to 33 | O=C(Cl)c1ccc2c(c1)OCCCO2
59 | 116 | CCCCC(=O)N(Cc1ccc(-c2ccccc2-c2nnn[nH]2)cc1)C(C(=O)O)C(C)C (stereo not given)
60 | 230 | Cc1nc2ccc(C(=O)O)cc2nc1C
61 | 103 to 105 | CCOC=C(C#N)S(=O)(=O)C(C)(C)C
62 | 101 | CC12CC3CC(C)(C1)CC(C(=O)O)(C3)C2
63 | 109 | Cc1cc(C)n(CO)n1
64 | 91 to 94 | COC(=O)c1sccc1NC(=O)CBr
65 | 290 | Cn1c(=O)c(C2=NNC(=O)C2=Cc2cccc(O)c2)c(O)c2ccccc21
66 | 186 | CC(CO)C1=C(O)C(=O)C2=C(CC(O)C3C(C)(C)CCCC23C)C1=O (stereo not given)
67 | 172 | CCCCOc1ccc(NC(=O)C(C(F)(F)F)C(F)(F)F)cc1
68 | 101 | c1c2c(cc3c1CC3)CC2
69 | 59 | CCCCCCC(C)OC(=O)COc1nc(F)c(Cl)c(N)c1Cl (stereo not given)
70 | 165 | Cc1nc(C=O)c[nH]1
71 | 119 to 125 | O=C(O)C(Br)=C(Br)C(=O)O

Row | SMILES | melting point [°C]
72 | CC(C)C1(Cc2ccco2)C(=O)NC(=O)NC1=O | 169
73 | COC(=O)[C@]1(O)CC2=C(c3c1cc(OC)nc3Cl)N(C)CCC2 | 153
74 | c1cncc(-c2ccnc(-c3cccnc3)c2)c1 | 148
75 | CN1C(=O)CCS(=O)(=O)C1c1ccc(Cl)cc1 (stereo not given) | 116
76 | CCOP(=S)(OCC)SC(CCl)N1C(=O)c2ccccc2C1=O (stereo not given) | 68
77 | CC(C)(C)C(=O)C(Oc1ccc(Cl)cc1)n1cncn1 (stereo not given) | 82.3
78 | NC(=O)C(CCN1CCCCCC1)(c1ccccc1)c1ccccc1 | 142
79 | CCC(=O)OC(Cc1ccccc1)(c1ccccc1)C(C)CN(C)C (stereo not given) | 75
80 | COc1ccc2c3c1OC1C(O)C=CC4C(C2)[N+](C)([O-])CCC341 (stereo not given) | 232
81 | CN1CCCC1C(O)(c1ccccc1)c1ccccc1 (stereo not given) | 66 to 69
82 | COP(=S)(OC)SCC(=O)N(c1ccc(Cl)cc1)C(C)C | 51
83 | Cc1ccc2nc3sc(=O)sc3nc2c1 | 170
84 | CNC(=O)Oc1cc(C)cc(C(C)C)c1 | 87
85 | CCN(CC)C(=O)C1C=C2c3cccc4[nH]cc(c34)CC2N(C)C1 (stereo not given) | 82.5
86 | Clc1ccc(C(Cl)(Cl)Cl)cc1 | 5.8
87 | O=Cc1cccc(CBr)c1 | 49 to 51
88 | Nc1cccc2c1Cc1ccccc1-2 | 126
89 | Cc1cc(C)c(CCl)c(C)c1 | 40
90 | CC12CCCCC1CCC1C2CCC2(C)C1CCC2(O)C#CCl (stereo not given) | 163
